The results in this text go back to ChEMBL document CHEMBL1150098, “Makaluvamines H-M and damirone C from the pohnpeian sponge Zyzzya fuliginosa” (J Nat Prod, 1995).

One assay deals with HCT-116. Briefly: Cytotoxicity against human HCT116 cells. The class given is functional, cell-based.
In assay [1] the target is DNA topoisomerase 2-alpha (Homo sapiens) (UniProt P11388). Briefly: Inhibition of DNA topoisomerase 2.

The structures appear in SMILES notation. Calls of active or inactive are those of the source. The rule behind the calls is not given here.

Chain of DNA topoisomerase 2-alpha (Homo sapiens) (P11388 whole entry): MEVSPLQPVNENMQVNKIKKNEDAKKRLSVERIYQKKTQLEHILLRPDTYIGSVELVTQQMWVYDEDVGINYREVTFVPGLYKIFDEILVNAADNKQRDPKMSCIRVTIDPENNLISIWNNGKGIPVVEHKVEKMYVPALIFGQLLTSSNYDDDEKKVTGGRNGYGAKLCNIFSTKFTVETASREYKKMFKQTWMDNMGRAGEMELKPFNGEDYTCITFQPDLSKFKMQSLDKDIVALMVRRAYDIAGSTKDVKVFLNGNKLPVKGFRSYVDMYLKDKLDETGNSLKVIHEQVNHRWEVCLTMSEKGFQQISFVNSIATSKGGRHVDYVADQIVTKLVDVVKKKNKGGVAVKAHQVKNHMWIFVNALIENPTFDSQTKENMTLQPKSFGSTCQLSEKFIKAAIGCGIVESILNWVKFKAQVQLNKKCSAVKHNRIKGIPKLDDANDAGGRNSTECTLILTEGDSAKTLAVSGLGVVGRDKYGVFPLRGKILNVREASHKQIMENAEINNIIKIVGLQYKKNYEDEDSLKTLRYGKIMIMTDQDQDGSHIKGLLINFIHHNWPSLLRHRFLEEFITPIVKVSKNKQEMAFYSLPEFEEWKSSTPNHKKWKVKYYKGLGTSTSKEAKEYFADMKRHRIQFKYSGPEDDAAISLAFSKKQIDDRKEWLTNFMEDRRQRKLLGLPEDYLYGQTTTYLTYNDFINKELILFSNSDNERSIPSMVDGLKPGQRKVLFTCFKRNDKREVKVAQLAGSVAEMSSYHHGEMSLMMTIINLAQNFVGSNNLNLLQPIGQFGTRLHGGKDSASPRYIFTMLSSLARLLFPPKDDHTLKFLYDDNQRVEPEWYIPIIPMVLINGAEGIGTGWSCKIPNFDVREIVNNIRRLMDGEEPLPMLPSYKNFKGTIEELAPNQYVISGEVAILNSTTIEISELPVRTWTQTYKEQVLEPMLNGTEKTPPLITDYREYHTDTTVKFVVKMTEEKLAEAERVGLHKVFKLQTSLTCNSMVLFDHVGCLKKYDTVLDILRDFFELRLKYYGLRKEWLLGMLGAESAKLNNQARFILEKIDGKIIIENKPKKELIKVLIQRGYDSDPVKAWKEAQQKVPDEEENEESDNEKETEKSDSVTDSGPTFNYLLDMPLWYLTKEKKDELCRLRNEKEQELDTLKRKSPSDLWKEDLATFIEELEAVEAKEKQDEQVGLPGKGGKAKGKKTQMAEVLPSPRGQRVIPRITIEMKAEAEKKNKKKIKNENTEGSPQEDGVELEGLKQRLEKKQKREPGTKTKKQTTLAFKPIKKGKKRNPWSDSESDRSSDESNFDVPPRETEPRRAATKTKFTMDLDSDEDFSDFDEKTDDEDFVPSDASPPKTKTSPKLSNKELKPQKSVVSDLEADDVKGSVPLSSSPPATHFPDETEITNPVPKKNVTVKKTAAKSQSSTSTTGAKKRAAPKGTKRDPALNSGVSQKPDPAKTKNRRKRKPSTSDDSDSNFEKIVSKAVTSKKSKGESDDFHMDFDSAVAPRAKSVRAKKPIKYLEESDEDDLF

With `NC1=CC2=NCCc3c[nH]c(c32)C1=O`, the outcome in the assay on HCT-116 was Active.

In the case of `O=C1C(NC2Cc3cc(Br)c(O)cc3S2)=CC2=NCCc3c[nH]c1c32` (stereo not drawn), the result (in assay [1]; in the assay on HCT-116) was Active.

`Cn1cc2c3c1C(=O)C(N/C=C/c1ccc(O)cc1)=CC3=NCC2`: the result (in assay [1]; in the assay with HCT-116) was Active.

For the compound `C[N+]1=C2C=C(N)C(=O)c3[nH]cc(c32)CC1`, the result (in assay [1]; in the assay with HCT-116) was Active.

On to `O=C1C(N/C=C/c2ccc(O)cc2)=CC2=NCCc3c[nH]c1c32`, for which the result in assay [1] was inactive. The outcome with HCT-116 was Active.

Consider `Cn1cc2c3c1C(=O)C(N)=CC3=[N+](C)CC2`, for which the outcome in assay [1] was inactive. Besides, the result in the assay with HCT-116 was Active.

In the case of `Cn1cc2c3c1C(=O)C(N/C=C/c1ccc(O)cc1)=CC3=[N+](C)CC2`, in assay [1], the outcome was inactive. The result with HCT-116 was Active.

For the compound `C[N+]1=C2C=C(NCCc3ccc(O)cc3)C(=O)c3[nH]cc(c32)CC1`, the result in assay [1] was inactive. Moreover, in the assay on HCT-116, the outcome was Active.

In the case of `Cn1cc2c3c1C(=O)C(NCCc1ccc(O)cc1)=CC3=NCC2`, in assay [1], the result was inactive. Further, the result in the assay with HCT-116 was Active.

As for `Cn1cc2c3c1C(=O)C(N)=CC3=NCC2`, the result (in assay [1]; in the assay with HCT-116) was Active.

Consider `C[N+]1=C2C=C(N/C=C/c3ccc(O)cc3)C(=O)c3[nH]cc(c32)CC1`, for which the outcome in assay [1] was inactive. Further, in the assay with HCT-116, the outcome was Active.

With `O=C1C(NCCc2ccc(O)cc2)=CC2=NCCc3c[nH]c1c32`, the outcome in assay [1] was inactive. The outcome in the assay on HCT-116 was Active.
